For 2 molecules, Normal melting temperature results are on record in the NIST ThermoML archive (doi:10.1016/j.jct.2014.12.004).

Numbers after ± are expanded uncertainties.

For this series the following is noted: Crystal; DTA.

Take `O=c1c2ccccc2nc2n1CCc1c-2[nH]c2ccccc12` [Rutecarpine]: the Normal melting temperature was determined as 259.1 ± 0.4 °C. With `CN1c2ccccc2C(=O)N2CCc3c([nH]c4ccccc34)[C@H]21` [evodiamine] the figure was 275.1 ± 0.4 °C.
